Results on 23 molecules are retold here after patent publication US11708344B2, “Flavone derivatives for the treatment and prophylaxis of hepatitis B virus disease” (Hoffmann-La Roche Inc., priority 2018, dated 2023).

Data set [1] is described as follows: Human microsome stability assay. The format is in vitro ADME. The conditions noted are these: human liver microsomes, 1 μM test compound, 0.5 mg/mL microsomal protein, 37° C., pH 7.4, 0-30 minutes. A digest of the protocol:
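Parent compound remaining was measured by LC-MS/MS at 0, 3, 6, 9, 15 and 30 min, following ACN quench. Reactions held 1 μM compound and 0.5 mg/mL human liver microsomal protein in pH 7.4 phosphate buffer at 37 °C, started by NADPH regeneration (1 mM NADP, 1 mM MgCl2); controls lacked NADPH.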

Data set [2] has as its system HBeAg (surrogate marker for cccDNA) in HepDES19 cells. Nature of the data set: Engineered HepDES19 primary screen assay (HBeAg ELISA). The format is cell-based, HBV. The conditions noted are these: Hepatitis B virus, HepDES19, 120 h, read-out: IC50 (HBeAg level, HepDES19 primary screen assay), HepDES19 cells, 5 days compound incubation, HBeAg ELISA. The method in brief: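 IC50 values come from 4-parameter logistic fits of HBeAg ELISA signal, the cccDNA surrogate, with CCK-8 run in parallel for viability. Compounds at half-log dilutions with 1% DMSO were applied for 5 days at 37 °C to HepDES19 cells previously cultured 8 days without Tet.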

The subject of data set [3] is HBsAg in HBV-infected PHH. As to the kind of experiment: Cryopreserved primary human hepatocytes (PHH) HBV infection assay, extracellular HBsAg (CLIA). The format is cell-based. The conditions noted are these: Hepatitis B virus, Hepatocyte, 216 h, read-out: HBsAg IC50, Cryopreserved PHH infected with HBV, 9 days post-compound treatment, extracellular HBsAg. The method in brief: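 Cryopreserved PHH were infected with 5.8×10^6 HBV genome equivalents in medium with 4% PEG8000 and 1% DMSO. After 9 days of treatment, extracellular HBsAg was measured by CLIA, and IC50 was derived from a 4-parameter logistic fit.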

Each structure is given as a SMILES string.

On to `O=c1cc(-c2ccc(OC(F)(F)F)cc2O[C@H]2C[C@@H](C(=O)O)C2)oc2c(Cl)cccc12` [Example B015-A, Cis-3-[2-(8-chloro-4-oxo-chromen-2-yl)-5-(trifluoromethoxy)phenoxy]cyclobutanecarboxylic acid], for which, in data set [1], the “Clearance of Human microsome” value was determined as 0.369 L/h/kg. Further, the results for the IC50 in data set [2] and in data set [3] were 3.79 µM and 2.57 µM, respectively.

Consider `Cc1ccc(-c2cc(=O)c3cccc(Cl)c3o2)c(O[C@H]2C[C@@H](C(=O)O)C2)c1` [Example B018-A, Cis-3-[2-(8-chloro-4-oxo-chromen-2-yl)-5-methyl-phenoxy]cyclobutanecarboxylic acid], for which the “Clearance of Human microsome” value in data set [1] amounted to 0.369 L/h/kg. The results for the half-maximal inhibitory concentration (IC50) in data set [2] and in data set [3] were 0.146 µM and 0.887 µM, respectively.

For the molecule `O=c1cc(-c2ccccc2O[C@H]2C[C@@H](C(=O)O)C2)oc2c(Br)cccc12` [Example B022-A, Cis-3-[2-(8-bromo-4-oxo-chromen-2-yl)phenoxy]cyclobutanecarboxylic acid], the “Clearance of Human microsome” value in data set [1] stood at 0.369 L/h/kg. Besides, the IC50 was determined as 0.112 µM in data set [2] and 3.83 µM in data set [3].

For the molecule `O=c1cc(-c2cc(C(F)(F)F)c(Br)cc2O[C@H]2C[C@H](C(=O)O)C2)oc2c(Cl)cccc12` [Example B024, Trans-3-[5-bromo-2-(8-chloro-4-oxo-chromen-2-yl)-4-(trifluoromethyl)phenoxy]cyclobutanecarboxylic acid], the “Clearance of Human microsome” value in data set [1] turned out to be 0.445 L/h/kg. Also, the results for the concentration for half-maximal inhibition (IC50) in data set [2] and in data set [3] were 1.64 µM and 6.84 µM, respectively.

Turning to `O=c1cc(-c2ccccc2OC[C@H]2C[C@@H](C(=O)O)C2)oc2c(Cl)cccc12` [Example B026-A, Cis-3-[[2-(8-chloro-4-oxo-chromen-2-yl)phenoxy]methyl]cyclobutanecarboxylic acid], the “Clearance of Human microsome” value in data set [1] stood at 0.369 L/h/kg. In addition, the IC50 was 0.0394 µM in data set [2] and 4.97 µM in data set [3].

With `O=c1cc(-c2ccccc2OC[C@H]2C[C@H](C(=O)O)C2)oc2c(Cl)cccc12` [Example B026-B, Trans-3-[[2-(8-chloro-4-oxo-chromen-2-yl)phenoxy]methyl]cyclobutanecarboxylic acid], in data set [1], the “Clearance of Human microsome” value stood at 0.369 L/h/kg. The 50% inhibitory concentration (IC50) in data set [2] is 0.138 µM; in data set [3], 3.19 µM.

As for `O=c1cc(-c2ccc(C3CC3)cc2O[C@H]2C[C@@H](C(=O)O)C2)oc2c(Cl)cccc12` [Example B035-A, cis-3-[2-(8-chloro-4-oxo-chromen-2-yl)-5-cyclopropyl-phenoxy]cyclobutanecarboxylic acid], in data set [1], the “Clearance of Human microsome” value stood at 0.508 L/h/kg. Further, the half-maximal inhibitory concentration (IC50) in data set [2] was 0.16 µM; in data set [3], 1.46 µM.

For the molecule `O=c1cc(-c2ccc(Br)cc2O[C@H]2C[C@@H](C(=O)O)C2)oc2c(Cl)ccc(O)c12` [Example B036-A, Cis-3-[5-bromo-2-(8-chloro-5-hydroxy-4-oxo-chromen-2-yl)phenoxy]cyclobutanecarboxylic acid], in data set [1], the “Clearance of Human microsome” value amounted to 0.369 L/h/kg. Also, the IC50 in data set [2] came out at 0.926 µM; in data set [3], 9.5 µM.

Take `Cc1ccc(-c2cc(=O)c3c(O)ccc(Cl)c3o2)c(O[C@H]2C[C@@H](C(=O)O)C2)c1` [Example B037-A, Cis-3-[2-(8-chloro-5-hydroxy-4-oxo-chromen-2-yl)-5-methyl-phenoxy]cyclobutanecarboxylic acid]: in data set [1], the “Clearance of Human microsome” value turned out to be 0.592 L/h/kg. The IC50 in data set [2] came out at 4.43 µM; in data set [3], 2.04 µM.

With `O=c1cc(-c2ccc(C(F)(F)F)cc2O[C@H]2C[C@H](C(=O)NS(=O)(=O)C3CC3)C2)oc2c(Cl)cccc12` [Example B043-B, trans-3-[2-(8-chloro-4-oxo-chromen-2-yl)-5-(trifluoromethyl)phenoxy]-N-cyclopropylsulfonyl-cyclobutanecarboxamide], the “Clearance of Human microsome” value in data set [1] was determined as 0.369 L/h/kg. In addition, the values for the IC50 in data set [2] and in data set [3] were 1.14 µM and 3.7 µM, respectively.

For the molecule `CS(=O)(=O)NC(=O)[C@H]1C[C@@H](Oc2cc(OC(F)(F)F)ccc2-c2cc(=O)c3cccc(Cl)c3o2)C1` [Example B047-A, Cis-3-[2-(8-chloro-4-oxo-chromen-2-yl)-5-(trifluoromethoxy)phenoxy]-N-methylsulfonyl-cyclobutanecarboxamide], the “Clearance of Human microsome” value in data set [1] turned out to be 0.369 L/h/kg. Besides, the figures for the IC50 in data set [2] and in data set [3] were 1.96 µM and 5.54 µM, respectively.

With `COc1cc(O[C@H]2C[C@H](C(=O)NS(C)(=O)=O)C2)c(-c2cc(=O)c3cccc(Cl)c3o2)cc1C` [Example B050-B, Trans-3-[2-(8-chloro-4-oxo-chromen-2-yl)-5-methoxy-4-methyl-phenoxy]-N-methylsulfonyl-cyclobutanecarboxamide], the “Clearance of Human microsome” value in data set [1] is 0.461 L/h/kg. For the same molecule, the half-inhibitory concentration (IC50) stood at 6.08 µM in data set [2] and 9.46 µM in data set [3].

In the case of `Cc1ccc(-c2cc(=O)c3cccc(Cl)c3o2)c(O[C@H]2C[C@@H](C(=O)NS(C)(=O)=O)C2)c1` [Example B051-A, Cis-3-[2-(8-chloro-4-oxo-chromen-2-yl)-5-methyl-phenoxy]-N-methylsulfonyl-cyclobutanecarboxamide], in data set [1], the “Clearance of Human microsome” value is 0.369 L/h/kg. For the same molecule, the IC50 in data set [2] stood at 6.18 µM; in data set [3], 3.21 µM.

On to `Cc1ccc(-c2cc(=O)c3cccc(Cl)c3o2)c(O[C@H]2C[C@H](C(=O)NS(C)(=O)=O)C2)c1` [Example B051-B, Trans-3-[2-(8-chloro-4-oxo-chromen-2-yl)-5-methyl-phenoxy]-N-methylsulfonyl-cyclobutanecarboxamide], for which, in data set [1], the “Clearance of Human microsome” value worked out at 0.418 L/h/kg. Also, the figures for the half-maximal inhibitory concentration (IC50) in data set [2] and in data set [3] were 9.22 µM and 5.3 µM, respectively.

Take `Cc1ccc(-c2cc(=O)c3cccc(Cl)c3o2)c(O[C@H]2C[C@@H](C(=O)NS(=O)(=O)C3CC3)C2)c1` [Example B052-A, Cis-3-[2-(8-chloro-4-oxo-chromen-2-yl)-5-methyl-phenoxy]-N-cyclopropylsulfonyl-cyclobutanecarboxamide]: the “Clearance of Human microsome” value in data set [1] was 0.369 L/h/kg. In addition, the IC50 in data set [2] worked out at 10.7 µM; in data set [3], 8.48 µM.

With `Cc1ccc(-c2cc(=O)c3cccc(Cl)c3o2)c(O[C@H]2C[C@H](C(=O)NS(=O)(=O)C3CC3)C2)c1` [Example B052-B, Trans-3-[2-(8-chloro-4-oxo-chromen-2-yl)-5-methyl-phenoxy]-N-cyclopropylsulfonyl-cyclobutanecarboxamide], the “Clearance of Human microsome” value in data set [1] is 0.369 L/h/kg. For the same molecule, the IC50 was found to be 16.3 µM in data set [2] and 7.98 µM in data set [3].

As to `O=C(O)C(O)COc1cc(C(F)(F)F)ccc1-c1cc(=O)c2cccc(Cl)c2o1` (stereo not drawn) [Example B073, 3-[2-(8-chloro-4-oxo-chromen-2-yl)-5-(trifluoromethyl)phenoxy]-2-hydroxy-propanoic acid], the “Clearance of Human microsome” value in data set [1] came to 0.369 L/h/kg. Also, the IC50 was 1.04 µM in data set [2] and 5.97 µM in data set [3].

On to `O=C(O)[C@@H]1C[C@@H](Oc2cc(C(F)(F)F)ccc2-c2cc(=O)c3cccc(Cl)c3o2)CN1S(=O)(=O)c1ccccc1` [Example B076, (2S,4R)-1-(benzenesulfonyl)-4-[2-(8-chloro-4-oxo-chromen-2-yl)-5-(trifluoromethyl)phenoxy]pyrrolidine-2-carboxylic acid], for which the “Clearance of Human microsome” value in data set [1] was 0.369 L/h/kg. Also, the IC50 was 0.111 µM in data set [2] and 1.31 µM in data set [3].

With `O=C(O)[C@@H]1C[C@H](Oc2cc(Br)ccc2-c2cc(=O)c3cccc(Cl)c3o2)CN1S(=O)(=O)c1ccccc1` [Example B082], in data set [1], the “Clearance of Human microsome” value turned out to be 0.369 L/h/kg. Further, the values for the half-inhibitory concentration (IC50) in data set [2] and in data set [3] were 1.98 µM and 4.8 µM, respectively.

With `O=C(O)[C@@H]1C[C@H](Oc2cc(Br)ccc2-c2cc(=O)c3cccc(Cl)c3o2)CN1S(=O)(=O)C1CC1` [Example B083, (2S,4S)-4-[5-bromo-2-(8-chloro-4-oxo-chromen-2-yl)phenoxy]-1-cyclopropylsulfonyl-pyrrolidine-2-carboxylic acid], the “Clearance of Human microsome” value in data set [1] turned out to be 0.369 L/h/kg. Also, the IC50 worked out at 0.704 µM in data set [2] and 3.24 µM in data set [3].

Regarding `Cc1ccc(-c2cc(=O)c3cccc(Cl)c3o2)c(OCCCOCC(=O)O)c1` [Example C002, 2-[3-[2-(8-chloro-4-oxo-chromen-2-yl)-5-methyl-phenoxy]propoxy]acetic acid], in data set [1], the “Clearance of Human microsome” value amounted to 0.369 L/h/kg. In addition, the IC50 in data set [2] is 0.348 µM; in data set [3], 2.43 µM.

On to `O=C(O)COCCOc1cc(Br)ccc1-c1cc(=O)c2cccc(Cl)c2o1` [Example C006, 2-[2-[5-bromo-2-(8-chloro-4-oxo-chromen-2-yl)phenoxy]ethoxy]acetic acid], for which the “Clearance of Human microsome” value in data set [1] worked out at 0.369 L/h/kg. Also, the IC50 was 1.26 µM in data set [2] and 3.74 µM in data set [3].

On to `Cc1cc(-c2cc(=O)c3cccc(Cl)c3o2)c(OCCCOCC(=O)O)cc1Br` [Example C011, 2-[3-[5-bromo-2-(8-chloro-4-oxo-chromen-2-yl)-4-methyl-phenoxy]propoxy]acetic acid], for which the “Clearance of Human microsome” value in data set [1] came to 0.369 L/h/kg. Moreover, the half-inhibitory concentration (IC50) in data set [2] was found to be 10.6 µM; in data set [3] it was 8.5 µM.
